ChEMBL document CHEMBL4507275, “Data for DCP probe BI-2545” (2021)

What was measured:
[1] = system: Tyrosine-protein kinase ABL1 (Homo sapiens), P00519 [F317I]; details: Compound concentration 1000.0 nM
[2] = target: Activin receptor type-1-like (Homo sapiens) (UniProt P37023); details: Compound concentration 1000.0 nM
[3] = target: Atypical kinase COQ8A, mitochondrial (Homo sapiens) (UniProt Q8NI60); details: Compound concentration 1000.0 nM
[4] = target: Protein-tyrosine kinase 6 (Homo sapiens) (UniProt Q13882); details: Compound concentration 1000.0 nM
[5] = target: Serine/threonine-protein kinase BRSK2 (Homo sapiens) (UniProt Q8IWQ3); details: Compound concentration 1000.0 nM
[6] = target: Calcium/calmodulin-dependent protein kinase type 1D (Homo sapiens) (UniProt Q8IU85); details: Compound concentration 1000.0 nM
[7] = target: Calcium/calmodulin-dependent protein kinase type II subunit beta (Homo sapiens) (UniProt Q13554); details: Compound concentration 1000.0 nM
[8] = target: Cyclin-dependent kinase 13 (Homo sapiens) (UniProt Q14004); details: Compound concentration 1000.0 nM
[9] = target: Cyclin-dependent kinase 3 (Homo sapiens) (UniProt Q00526); details: Compound concentration 1000.0 nM
[10] = target: Dual specificity protein kinase CLK3 (Homo sapiens) (UniProt P49761); details: Compound concentration 1000.0 nM
[11] = target: Casein kinase I isoform alpha (Homo sapiens) (UniProt P48729); details: Compound concentration 1000.0 nM
[12] = target: Casein kinase I isoform delta (Homo sapiens) (UniProt P48730); details: Compound concentration 1000.0 nM
[13] = target: Megakaryocyte-associated tyrosine-protein kinase (Homo sapiens) (UniProt P42679); details: Compound concentration 1000.0 nM
[14] = target: Serine/threonine-protein kinase DCLK3 (Homo sapiens) (UniProt Q9C098); details: Compound concentration 1000.0 nM
[15] = target: Myotonin-protein kinase (Homo sapiens) (UniProt Q09013); details: Compound concentration 1000.0 nM
[16] = target: Serine/threonine-protein kinase 17B (Homo sapiens) (UniProt O94768); details: Compound concentration 1000.0 nM
[17] = system: Epidermal growth factor receptor (Homo sapiens), P00533 [UNDEFINED MUTATION]; details: Compound concentration 1000.0 nM
[18] = system: Epidermal growth factor receptor (Homo sapiens), P00533 [T790M]; details: Compound concentration 1000.0 nM
[19] = target: Ephrin type-A receptor 2 (Homo sapiens) (UniProt P29317); details: Compound concentration 1000.0 nM
[20] = target: Ephrin type-B receptor 3 (Homo sapiens) (UniProt P54753); details: Compound concentration 1000.0 nM
[21] = target: Focal adhesion kinase 1 (Homo sapiens) (UniProt Q05397); details: Compound concentration 1000.0 nM
[22] = target: Vascular endothelial growth factor receptor 1 (Homo sapiens) (UniProt P17948); details: Compound concentration 1000.0 nM
[23] = system: Receptor-type tyrosine-protein kinase FLT3 (Homo sapiens), P36888 [UNDEFINED MUTATION]; details: Compound concentration 1000.0 nM
[24] = system: Receptor-type tyrosine-protein kinase FLT3 (Homo sapiens), P36888 [K663Q]; details: Compound concentration 1000.0 nM
[25] = target: Receptor-type tyrosine-protein kinase FLT3 (Homo sapiens) (UniProt P36888); details: Compound concentration 1000.0 nM
[26] = target: Serine/threonine-protein kinase ICK (Homo sapiens) (UniProt Q9UPZ9); details: Compound concentration 1000.0 nM
[27] = target: Tyrosine-protein kinase ITK/TSK (Homo sapiens) (UniProt Q08881); details: Compound concentration 1000.0 nM
[28] = target: Misshapen-like kinase 1 (Homo sapiens) (UniProt Q8N4C8); details: Compound concentration 1000.0 nM
[29] = target: Dual specificity mitogen-activated protein kinase kinase 7 (Homo sapiens) (UniProt O14733); details: Compound concentration 1000.0 nM
[30] = target: Macrophage-stimulating protein receptor (Homo sapiens) (UniProt Q04912); details: Compound concentration 1000.0 nM
[31] = target: Myosin light chain kinase, smooth muscle (Homo sapiens) (UniProt Q15746); details: Compound concentration 1000.0 nM
[32] = target: Serine/threonine-protein kinase 38 (Homo sapiens) (UniProt Q15208); details: Compound concentration 1000.0 nM
[33] = target: Serine/threonine-protein kinase Nek3 (Homo sapiens) (UniProt P51956); details: Compound concentration 1000.0 nM
[34] = target: Serine/threonine-protein kinase PAK 4 (Homo sapiens) (UniProt O96013); details: Compound concentration 1000.0 nM
[35] = target: Phosphatidylinositol 3-kinase C2 domain-containing subunit gamma (Homo sapiens) (UniProt O75747); details: Compound concentration 1000.0 nM
[36] = target: 1-phosphatidylinositol 3-phosphate 5-kinase (Homo sapiens) (UniProt Q9Y2I7); details: Compound concentration 1000.0 nM
[37] = target: Protein kinase C eta type (Homo sapiens) (UniProt P24723); details: Compound concentration 1000.0 nM
[38] = target: Serine/threonine-protein kinase RIO2 (Homo sapiens) (UniProt Q9BVS4); details: Compound concentration 1000.0 nM
[39] = target: High affinity nerve growth factor receptor (Homo sapiens) (UniProt P04629); details: Compound concentration 1000.0 nM
[40] = target: 5-hydroxytryptamine receptor 2A (Homo sapiens, UniProt P28223); details: Compound concentration 10.0 uM
[41] = target: D(3) dopamine receptor (Homo sapiens) (UniProt P35462); details: Compound concentration 10.0 uM
[42] = target: D(4) dopamine receptor (Homo sapiens) (UniProt P21917); details: Compound concentration 10.0 uM
[43] = target: Kappa-type opioid receptor (Homo sapiens) (UniProt P41145); details: Compound concentration 10.0 uM
[44] = target: GABA-A receptor; anion channel (Rattus norvegicus) (UniProt O09028+P15431+P18506+P18508+P19969+P20236+P23574+P23576+P28471+P28473+P30191+P62813+P63079+P63138+Q91ZM7+Q9ES14); details: Compound concentration 10.0 uM

D(4) dopamine receptor (Homo sapiens), sequence (P21917 whole entry): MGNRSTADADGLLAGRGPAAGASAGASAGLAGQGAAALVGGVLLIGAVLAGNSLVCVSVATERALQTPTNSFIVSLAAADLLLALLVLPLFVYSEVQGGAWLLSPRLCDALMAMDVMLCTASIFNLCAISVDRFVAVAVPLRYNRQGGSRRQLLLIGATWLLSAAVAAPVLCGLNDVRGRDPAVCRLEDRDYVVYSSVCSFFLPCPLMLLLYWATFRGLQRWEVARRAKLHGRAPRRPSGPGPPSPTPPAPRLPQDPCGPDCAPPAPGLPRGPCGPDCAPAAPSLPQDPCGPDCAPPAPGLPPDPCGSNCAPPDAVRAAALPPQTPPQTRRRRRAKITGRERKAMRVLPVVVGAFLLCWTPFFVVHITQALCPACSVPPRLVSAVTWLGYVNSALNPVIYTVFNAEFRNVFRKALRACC
Ephrin type-A receptor 2 (Homo sapiens), sequence (P29317 whole entry): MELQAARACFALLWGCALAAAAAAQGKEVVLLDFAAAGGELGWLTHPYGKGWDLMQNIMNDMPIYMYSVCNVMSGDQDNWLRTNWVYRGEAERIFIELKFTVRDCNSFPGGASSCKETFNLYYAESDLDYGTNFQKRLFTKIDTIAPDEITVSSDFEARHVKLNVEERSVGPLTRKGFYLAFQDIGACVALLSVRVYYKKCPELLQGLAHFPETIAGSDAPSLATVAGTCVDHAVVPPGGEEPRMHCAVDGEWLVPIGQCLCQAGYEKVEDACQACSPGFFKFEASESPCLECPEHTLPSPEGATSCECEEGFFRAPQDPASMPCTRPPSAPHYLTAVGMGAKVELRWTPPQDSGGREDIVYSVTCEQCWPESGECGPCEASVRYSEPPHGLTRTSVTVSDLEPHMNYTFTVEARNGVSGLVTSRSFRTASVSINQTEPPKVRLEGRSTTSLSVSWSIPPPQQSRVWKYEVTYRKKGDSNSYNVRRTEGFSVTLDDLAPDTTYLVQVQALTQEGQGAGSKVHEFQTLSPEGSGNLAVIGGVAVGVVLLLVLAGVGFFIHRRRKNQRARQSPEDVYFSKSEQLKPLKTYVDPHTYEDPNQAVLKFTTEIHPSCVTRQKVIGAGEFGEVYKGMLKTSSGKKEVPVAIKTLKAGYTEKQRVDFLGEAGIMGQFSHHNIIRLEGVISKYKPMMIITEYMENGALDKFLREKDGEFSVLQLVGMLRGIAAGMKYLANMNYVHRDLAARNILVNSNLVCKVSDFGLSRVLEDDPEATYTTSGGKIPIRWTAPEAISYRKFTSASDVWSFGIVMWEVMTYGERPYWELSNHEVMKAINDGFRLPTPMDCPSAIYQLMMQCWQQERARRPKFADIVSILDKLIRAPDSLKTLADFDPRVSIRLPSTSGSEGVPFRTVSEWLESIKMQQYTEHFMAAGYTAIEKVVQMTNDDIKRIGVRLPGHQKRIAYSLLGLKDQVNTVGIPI
High affinity nerve growth factor receptor (Homo sapiens), sequence (P04629 33-796 limits assumed): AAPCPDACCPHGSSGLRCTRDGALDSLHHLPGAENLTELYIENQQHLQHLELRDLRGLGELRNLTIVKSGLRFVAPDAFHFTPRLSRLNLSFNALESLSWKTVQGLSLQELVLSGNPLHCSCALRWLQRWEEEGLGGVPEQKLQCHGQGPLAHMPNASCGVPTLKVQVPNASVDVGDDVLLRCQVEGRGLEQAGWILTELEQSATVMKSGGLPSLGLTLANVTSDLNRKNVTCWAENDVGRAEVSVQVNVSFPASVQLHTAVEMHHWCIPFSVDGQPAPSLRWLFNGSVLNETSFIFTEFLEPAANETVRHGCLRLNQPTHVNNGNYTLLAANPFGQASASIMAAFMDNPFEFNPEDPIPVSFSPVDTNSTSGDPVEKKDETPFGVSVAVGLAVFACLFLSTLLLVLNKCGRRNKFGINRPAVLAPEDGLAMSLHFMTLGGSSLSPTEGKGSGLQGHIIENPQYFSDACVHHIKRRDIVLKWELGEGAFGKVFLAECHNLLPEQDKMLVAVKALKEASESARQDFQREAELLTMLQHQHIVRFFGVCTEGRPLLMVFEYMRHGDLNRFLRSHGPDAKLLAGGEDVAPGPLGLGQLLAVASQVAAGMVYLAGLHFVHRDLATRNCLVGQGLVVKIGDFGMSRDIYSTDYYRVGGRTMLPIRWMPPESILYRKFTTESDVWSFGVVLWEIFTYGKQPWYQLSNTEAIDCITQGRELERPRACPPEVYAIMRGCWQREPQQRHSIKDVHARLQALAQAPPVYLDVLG
1-phosphatidylinositol 3-phosphate 5-kinase (Homo sapiens), sequence (Q9Y2I7 whole entry): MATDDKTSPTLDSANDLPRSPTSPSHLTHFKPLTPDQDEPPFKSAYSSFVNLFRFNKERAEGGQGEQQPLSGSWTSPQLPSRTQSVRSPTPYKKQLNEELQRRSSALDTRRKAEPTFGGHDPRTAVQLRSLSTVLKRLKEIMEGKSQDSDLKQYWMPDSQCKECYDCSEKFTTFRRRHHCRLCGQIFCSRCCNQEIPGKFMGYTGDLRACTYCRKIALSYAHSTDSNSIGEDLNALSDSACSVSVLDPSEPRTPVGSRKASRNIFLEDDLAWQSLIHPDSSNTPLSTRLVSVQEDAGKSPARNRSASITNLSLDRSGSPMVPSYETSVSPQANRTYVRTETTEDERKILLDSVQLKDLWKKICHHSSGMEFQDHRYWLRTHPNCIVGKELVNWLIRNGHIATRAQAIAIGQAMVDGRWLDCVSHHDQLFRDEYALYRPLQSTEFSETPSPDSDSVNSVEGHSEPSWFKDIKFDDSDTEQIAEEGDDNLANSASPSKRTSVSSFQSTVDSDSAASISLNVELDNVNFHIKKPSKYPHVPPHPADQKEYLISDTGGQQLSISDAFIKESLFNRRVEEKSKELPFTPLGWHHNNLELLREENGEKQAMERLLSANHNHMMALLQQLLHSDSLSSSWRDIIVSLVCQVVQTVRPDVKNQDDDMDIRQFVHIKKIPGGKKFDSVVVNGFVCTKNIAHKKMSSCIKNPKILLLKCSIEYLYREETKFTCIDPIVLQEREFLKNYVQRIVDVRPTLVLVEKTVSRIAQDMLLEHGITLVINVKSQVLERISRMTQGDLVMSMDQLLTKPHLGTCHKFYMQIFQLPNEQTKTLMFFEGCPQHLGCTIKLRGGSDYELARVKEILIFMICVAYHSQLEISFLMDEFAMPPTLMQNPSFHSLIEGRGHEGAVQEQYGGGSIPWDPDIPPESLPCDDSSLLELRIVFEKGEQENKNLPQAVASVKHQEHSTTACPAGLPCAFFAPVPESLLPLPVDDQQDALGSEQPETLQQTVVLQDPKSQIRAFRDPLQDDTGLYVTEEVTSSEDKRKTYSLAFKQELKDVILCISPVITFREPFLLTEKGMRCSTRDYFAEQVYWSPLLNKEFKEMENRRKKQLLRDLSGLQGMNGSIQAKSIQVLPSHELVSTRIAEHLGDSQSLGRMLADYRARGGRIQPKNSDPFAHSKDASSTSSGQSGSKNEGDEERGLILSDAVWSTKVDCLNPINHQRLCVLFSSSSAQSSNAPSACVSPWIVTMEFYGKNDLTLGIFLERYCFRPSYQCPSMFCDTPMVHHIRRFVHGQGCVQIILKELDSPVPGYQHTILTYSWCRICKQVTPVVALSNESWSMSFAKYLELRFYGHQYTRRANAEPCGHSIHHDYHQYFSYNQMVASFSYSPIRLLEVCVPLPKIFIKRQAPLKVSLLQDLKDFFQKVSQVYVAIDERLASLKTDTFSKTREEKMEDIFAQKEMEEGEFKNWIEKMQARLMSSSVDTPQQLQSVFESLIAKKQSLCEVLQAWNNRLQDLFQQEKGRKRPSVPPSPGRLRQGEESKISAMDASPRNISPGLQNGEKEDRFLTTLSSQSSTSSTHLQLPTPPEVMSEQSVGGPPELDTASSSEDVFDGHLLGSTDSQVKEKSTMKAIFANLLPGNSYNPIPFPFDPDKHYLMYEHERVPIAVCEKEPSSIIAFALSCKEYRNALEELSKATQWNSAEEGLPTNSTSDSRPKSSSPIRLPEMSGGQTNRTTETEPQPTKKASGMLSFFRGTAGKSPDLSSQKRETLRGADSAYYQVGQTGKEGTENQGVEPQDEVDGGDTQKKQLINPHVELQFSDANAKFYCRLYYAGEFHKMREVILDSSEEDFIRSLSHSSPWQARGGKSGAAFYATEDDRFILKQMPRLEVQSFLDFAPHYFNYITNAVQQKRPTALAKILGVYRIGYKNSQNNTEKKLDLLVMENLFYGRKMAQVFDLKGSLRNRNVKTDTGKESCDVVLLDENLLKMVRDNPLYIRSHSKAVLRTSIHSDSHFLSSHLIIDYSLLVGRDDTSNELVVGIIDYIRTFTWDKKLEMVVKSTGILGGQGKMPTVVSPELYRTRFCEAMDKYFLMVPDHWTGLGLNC
Serine/threonine-protein kinase ICK (Homo sapiens), sequence (Q9UPZ9 whole entry): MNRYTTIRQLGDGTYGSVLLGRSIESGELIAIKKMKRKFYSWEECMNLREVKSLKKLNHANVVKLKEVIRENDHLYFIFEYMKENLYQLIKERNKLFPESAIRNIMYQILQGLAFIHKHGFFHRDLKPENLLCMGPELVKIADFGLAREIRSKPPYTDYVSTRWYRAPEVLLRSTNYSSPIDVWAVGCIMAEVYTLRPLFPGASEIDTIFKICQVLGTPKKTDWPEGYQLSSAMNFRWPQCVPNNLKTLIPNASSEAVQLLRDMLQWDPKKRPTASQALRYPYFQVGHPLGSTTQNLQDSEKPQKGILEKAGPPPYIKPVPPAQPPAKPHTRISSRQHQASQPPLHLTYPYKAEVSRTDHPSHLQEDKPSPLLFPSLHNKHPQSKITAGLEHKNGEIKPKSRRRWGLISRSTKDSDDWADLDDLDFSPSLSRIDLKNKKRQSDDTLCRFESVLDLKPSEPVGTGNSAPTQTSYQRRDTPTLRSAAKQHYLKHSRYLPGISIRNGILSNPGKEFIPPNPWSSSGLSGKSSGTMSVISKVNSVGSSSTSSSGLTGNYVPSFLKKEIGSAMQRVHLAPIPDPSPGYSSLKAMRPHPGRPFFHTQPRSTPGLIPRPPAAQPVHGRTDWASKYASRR

Which residual activity [1] does the source give for `Cc1nccc(COC(=O)N2C[C@@H]3[C@@H](CNC(=O)c4ccc5[nH]nnc5c4)[C@@H]3C2)n1` [BI 3017] here?
The residual activity was 100%.

And the residual activity [2]?
Its residual activity is 100%.

What about the residual activity [3] of the same molecule?
The residual activity was 84%.

What about the residual activity [4] of the same molecule?
The residual activity was 100%.

What about the residual activity [5] of the same molecule?
Its residual activity is 86%.

And the residual activity [6]?
Its residual activity is 100%.

And the residual activity [7]?
Its residual activity is 90%.

And the residual activity [8]?
The residual activity was 82%.

What about the residual activity [9] of the same molecule?
Its residual activity is 97%.

And the residual activity [10]?
The residual activity was 90%.

What about the residual activity [11] of the same molecule?
The residual activity was 86%.

What about the residual activity [12] of the same molecule?
Its residual activity is 97%.

And the residual activity [13]?
Its residual activity is 94%.

What about the residual activity [14] of the same molecule?
The residual activity was 100%.

And the residual activity [15]?
Its residual activity is 98%.

And the residual activity [16]?
The residual activity was 85%.

And the residual activity [17]?
Its residual activity is 100%.

And the residual activity [18]?
Its residual activity is 91%.

And the residual activity [19]?
Its residual activity is 92%.

What about the residual activity [20] of the same molecule?
Its residual activity is 100%.

And the residual activity [21]?
Its residual activity is 100%.

What about the residual activity [22] of the same molecule?
Its residual activity is 100%.

And the residual activity [23]?
Its residual activity is 100%.

What about the residual activity [24] of the same molecule?
The residual activity was 100%.

And the residual activity [25]?
Its residual activity is 93%.

What about the residual activity [26] of the same molecule?
Its residual activity is 100%.

And the residual activity [27]?
The residual activity was 100%.

And the residual activity [28]?
The residual activity was 100%.

And the residual activity [29]?
Its residual activity is 100%.

What about the residual activity [30] of the same molecule?
The residual activity was 100%.

What about the residual activity [31] of the same molecule?
Its residual activity is 100%.

And the residual activity [32]?
Its residual activity is 100%.

And the residual activity [33]?
Its residual activity is 100%.

What about the residual activity [34] of the same molecule?
Its residual activity is 100%.

What about the residual activity [35] of the same molecule?
The residual activity was 99%.

And the residual activity [36]?
Its residual activity is 100%.

What about the residual activity [37] of the same molecule?
Its residual activity is 98%.

And the residual activity [38]?
The residual activity was 97%.

And the residual activity [39]?
Its residual activity is 94%.

What about the inhibition [40] of the same molecule?
Its inhibition is 7.65%.

What about the inhibition [41] of the same molecule?
Its inhibition is 1.07%.

And the inhibition [42]?
The inhibition was -0.15%.

What about the inhibition [43] of the same molecule?
Its inhibition is 9.47%.

And the inhibition [44]?
The inhibition was 14.2%.

With `O=C(NC[C@@H]1[C@H]2CN(C(=O)OCc3cc(C(F)(F)F)cc(C(F)(F)F)c3)C[C@@H]12)c1ccc2[nH]nnc2c1` [BI 2545] as the molecule, how does the residual activity [1] read?
Its residual activity is 89%.

And the residual activity [2]?
Its residual activity is 100%.

What about the residual activity [3] of the same molecule?
Its residual activity is 100%.

What about the residual activity [4] of the same molecule?
Its residual activity is 96%.

What about the residual activity [5] of the same molecule?
The residual activity was 96%.

And the residual activity [6]?
Its residual activity is 100%.

What about the residual activity [7] of the same molecule?
The residual activity was 100%.

And the residual activity [8]?
The residual activity was 85%.

And the residual activity [9]?
Its residual activity is 94%.

What about the residual activity [10] of the same molecule?
The residual activity was 78%.

And the residual activity [11]?
Its residual activity is 100%.

And the residual activity [12]?
Its residual activity is 100%.

What about the residual activity [13] of the same molecule?
Its residual activity is 100%.

What about the residual activity [14] of the same molecule?
Its residual activity is 100%.

What about the residual activity [15] of the same molecule?
Its residual activity is 94%.

And the residual activity [16]?
Its residual activity is 91%.

What about the residual activity [17] of the same molecule?
The residual activity was 100%.

And the residual activity [18]?
Its residual activity is 78%.

What about the residual activity [19] of the same molecule?
Its residual activity is 79%.

What about the residual activity [20] of the same molecule?
The residual activity was 81%.

And the residual activity [21]?
Its residual activity is 100%.

What about the residual activity [22] of the same molecule?
The residual activity was 82%.

And the residual activity [23]?
Its residual activity is 83%.

What about the residual activity [24] of the same molecule?
Its residual activity is 98%.

And the residual activity [25]?
Its residual activity is 91%.

What about the residual activity [26] of the same molecule?
Its residual activity is 100%.

And the residual activity [27]?
Its residual activity is 100%.

What about the residual activity [28] of the same molecule?
The residual activity was 72%.

What about the residual activity [29] of the same molecule?
The residual activity was 95%.

And the residual activity [30]?
Its residual activity is 100%.

What about the residual activity [31] of the same molecule?
The residual activity was 88%.

And the residual activity [32]?
The residual activity was 75%.

What about the residual activity [33] of the same molecule?
Its residual activity is 100%.

What about the residual activity [34] of the same molecule?
Its residual activity is 100%.

What about the residual activity [35] of the same molecule?
The residual activity was 100%.

What about the residual activity [36] of the same molecule?
Its residual activity is 100%.

And the residual activity [37]?
Its residual activity is 100%.

What about the residual activity [38] of the same molecule?
The residual activity was 94%.

What about the residual activity [39] of the same molecule?
The residual activity was 85%.

What about the inhibition [40] of the same molecule?
The inhibition was 51.4%.

What about the inhibition [41] of the same molecule?
Its inhibition is 6.61%.

What about the inhibition [42] of the same molecule?
Its inhibition is 6.75%.

And the inhibition [43]?
The inhibition was 27.8%.

What about the inhibition [44] of the same molecule?
Its inhibition is -4.02%.
